The source of these data is ChEMBL document CHEMBL3879893, “Nuclear transport modulators and uses thereof” (2011).

The target in the assay is Exportin-1 (Homo sapiens, UniProt O14980). The experiment in a line: Inhibition of Crm1 in human U2OS cells expressing GFP-fused HIV1 Rev assessed as decrease in nuclear export of GFP-fused HIV1 Rev after 1 hr by Hoechst 33258 staining-based assay. In kind it is cell-based.
Exportin-1, sequence (O14980 whole entry, the tested form may be a part): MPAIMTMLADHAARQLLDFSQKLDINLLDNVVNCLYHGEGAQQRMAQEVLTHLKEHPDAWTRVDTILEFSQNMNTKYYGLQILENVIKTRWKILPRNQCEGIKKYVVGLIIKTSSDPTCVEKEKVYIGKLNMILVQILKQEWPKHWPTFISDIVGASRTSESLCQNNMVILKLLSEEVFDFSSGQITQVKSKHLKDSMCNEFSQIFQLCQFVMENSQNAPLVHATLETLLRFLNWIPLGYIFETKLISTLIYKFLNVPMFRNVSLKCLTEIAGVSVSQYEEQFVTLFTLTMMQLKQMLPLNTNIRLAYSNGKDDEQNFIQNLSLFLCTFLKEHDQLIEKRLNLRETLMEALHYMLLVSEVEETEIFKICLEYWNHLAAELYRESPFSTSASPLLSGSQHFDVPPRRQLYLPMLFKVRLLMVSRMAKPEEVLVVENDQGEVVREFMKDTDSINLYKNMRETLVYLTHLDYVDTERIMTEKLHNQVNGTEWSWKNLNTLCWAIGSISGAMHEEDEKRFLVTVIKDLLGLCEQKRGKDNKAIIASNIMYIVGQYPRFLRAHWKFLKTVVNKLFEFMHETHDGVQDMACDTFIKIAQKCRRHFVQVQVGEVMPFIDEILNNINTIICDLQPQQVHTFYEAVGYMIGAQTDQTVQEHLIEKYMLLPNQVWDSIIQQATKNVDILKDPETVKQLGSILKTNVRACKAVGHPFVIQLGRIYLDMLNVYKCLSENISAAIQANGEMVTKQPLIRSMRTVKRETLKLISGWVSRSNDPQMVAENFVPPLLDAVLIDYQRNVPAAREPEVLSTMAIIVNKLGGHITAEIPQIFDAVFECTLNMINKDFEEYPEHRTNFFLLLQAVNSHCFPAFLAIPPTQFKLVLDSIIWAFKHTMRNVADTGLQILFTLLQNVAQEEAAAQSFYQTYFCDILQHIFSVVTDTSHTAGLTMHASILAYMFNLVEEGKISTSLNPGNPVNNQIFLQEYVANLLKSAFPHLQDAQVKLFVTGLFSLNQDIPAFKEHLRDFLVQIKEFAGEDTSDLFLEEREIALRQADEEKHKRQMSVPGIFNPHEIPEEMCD
`CC(C)OC(=O)/C=C\n1cnc(-c2cc(OC(C)C)cc(C(F)(F)F)c2)n1`: the IC50 was no more than 1 µM.
The value for `CC(C)(C)OC(=O)/C=C/n1cnc(-c2cccc(Cl)c2)n1` was no less than 10 µM; that for `CCOC(=O)/C=C/n1cnc(-c2cccc(Cl)c2)n1` was no less than 10 µM.
`O=C(/C=C/n1cnc(-c2cccc(Cl)c2)n1)OC1CNC1`: the IC50 was in the range of 1 to 10 µM.
In the case of `COc1ccc(-c2ncn(/C=C\C(=O)OC(C)C)n2)cc1Cl`, the IC50 fell in the range of 1 to 10 µM.
As to `CCOC(=O)/C=C\n1cnc(-c2cc(F)cc(F)c2)n1`, the IC50 was in the range of 1 to 10 µM.
The value for `CC(C)OC(=O)/C=C\n1cnc(-c2cc(Cl)cc(Oc3ccc(Cl)cc3)c2)n1` was 1 to 10 µM; that for `CC(C)OC(=O)/C=C\n1cnc(-c2cc(Cl)cc(OC(C)C)c2)n1` was no more than 1 µM.
With `CC(C)OC(=O)/C=C\n1cnc(-c2cc(NC3CCC3)nc(C(F)(F)F)c2)n1`, the IC50 is no more than 1 µM.
`CC(C)OC(=O)/C=C\n1cnc(-c2cc(OCCN(C)C)cc(C(F)(F)F)c2)n1`: the IC50 was no more than 1 µM.
With `CC(C)OC(=O)/C=C\n1cnc(-c2csc(Cl)n2)n1`, the IC50 is 1 to 10 µM.
With `CNc1cc(Cl)cc(-c2ncn(/C=C\C(=O)OC(C)C)n2)c1`, the IC50 was no more than 1 µM.
`O=C(/C=C\n1cnc(-c2cccc(Cl)c2)n1)OC1CCCCC1`: the IC50 is no more than 1 µM.
As to `Nc1ccc(NC(=O)/C=C/n2cnc(-c3cccc(Cl)c3)n2)cc1`, the IC50 is no less than 10 µM.
As to `CC(C)OC(=O)/C=C\n1cnc(-c2cc(O/C=C/C(=O)OC(C)C)cc(C(F)(F)F)c2)n1`, the concentration for half-maximal inhibition (IC50) lay within 1 to 10 µM.
Regarding `COc1cc(-c2ncn(/C=C\C(=O)OC(C)C)n2)cc(Cl)n1`, the concentration for half-maximal inhibition (IC50) was no more than 1 µM.
As to `O=C(/C=C\n1cnc(-c2cccc(Cl)c2)n1)OC1CCC1`, the IC50 is no more than 1 µM.
As for `O=C(/C=C\n1cnc(-c2cccc(Cl)c2)n1)OC1COC1`, the IC50 was no more than 1 µM.
As for `O=C(/C=C\n1cnc(-c2cccc(Cl)c2)n1)OC1CCOCC1`, the IC50 was no more than 1 µM.
For the compound `CC(C)OC(=O)/C=C\n1cnc(-c2cc(OC(C)C)nc(C(F)(F)F)c2)n1`, the IC50 is no more than 1 µM.
In the case of `O=C(/C=C\n1cnc(-c2cccc(Cl)c2)n1)OCc1ccccn1`, the IC50 is no more than 1 µM.
For the compound `CC(C)Oc1cc(-c2ncn(/C=C\C(=O)OCc3ccccn3)n2)cc(C(F)(F)F)c1`, the IC50 is no more than 1 µM.
For the compound `COC(=O)/C=C\n1cnc(-c2cc(Cl)cc(OC)c2)n1`, the IC50 was no more than 1 µM.
With `CC(C)OC(=O)/C=C\n1cnc(-c2cncc(Cl)c2)n1`, the IC50 is no more than 1 µM.
Regarding `CC(C)(C)OC(=O)/C=C\n1cnc(-c2cccc(Cl)c2)n1`, the IC50 fell in the range of 1 to 10 µM.
The value for `CC(C)OC(=O)/C=C\n1cnc(-c2cc(Cl)nc(Cl)c2)n1` was no more than 1 µM; that for `CC(C)OC(=O)/C=C/n1cnc(-c2cc(OCCN(C)C)cc(C(F)(F)F)c2)n1` was 1 to 10 µM; that for `COc1cc(OC)cc(-c2ncn(/C=C\C(=O)OC(C)C)n2)c1` was no more than 1 µM.
For `CC(C)OC(=O)/C=C\n1cnc(-c2cc(OCCN3CCCC3)cc(C(F)(F)F)c2)n1`, the IC50 was no more than 1 µM.
`CCOC(=O)/C=C\n1cnc(-c2cccc(Cl)c2)n1`: the IC50 was no more than 1 µM.
For the compound `N#C/C=C\n1cnc(-c2cccc(Cl)c2)n1`, the IC50 is no more than 1 µM.
The value for `CC(C)OC(=O)/C=C\n1cnc(-c2ccc(Cl)c(Cl)c2)n1` was no more than 1 µM; that for `CC(C)OC(=O)/C=C\n1cnc(-c2csc(Cl)c2)n1` was no more than 1 µM.
Consider `COc1ccc(NC(=O)/C=C/n2cnc(-c3cccc(Cl)c3)n2)cc1`, for which the IC50 is no less than 10 µM.
The value for `COc1cc(-c2ncn(/C=C\C(=O)OC3CNC3)n2)cc(C(F)(F)F)c1` was no more than 1 µM.
Consider `N#C/C=C/n1cnc(-c2cccc(Cl)c2)n1`, for which the IC50 fell in the range of 1 to 10 µM.
With `FC(F)(F)/C=C\n1cnc(-c2cccc(Cl)c2)n1`, the IC50 was in the range of 1 to 10 µM.
For the compound `CC(C)Oc1cc(-c2ncn(/C=C\C(=O)OCc3ccccn3)n2)cc(C(F)(F)F)n1`, the IC50 was no more than 1 µM.
Consider `CC(C)OC(=O)/C=C\Cn1cnc(-c2cccc(Cl)c2)n1`, for which the IC50 was 1 to 10 µM.

For orientation: IC50 means the midpoint of a concentration-inhibition curve.
